Tested on: GST-Bcl-2
Test: TR-FRET binding assay, Bcl-2
Conditions: TR-FRET Ki values
Method in brief: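 Compounds serially diluted in DMSO from 50 μM (2× starting concentration, 10% DMSO), mixed with GST-tagged protein, F-Bak peptide probe and Tb-labeled antibody, incubated 3 h at room temperature.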

Compound | Binding selectivity ratio (Bcl-XL Ki/Bcl-2 Ki)
CC1(C)CCC(CN2CCN(c3ccc(C(=O)NS(=O)(=O)c4ccc(NC5CCN(C6CCOCC6)CC5)c([N+](=O)[O-])c4)c(Oc4ccc5[nH]ccc5c4)c3F)CC2)=C(c2ccc(Cl)cc2)C1 [EXAMPLE 185, 4-(4-{[2-(4-chlorophenyl)-4,4-dimethylcyclohex-1-en-1-yl]methyl}piperazin-1-yl)-3-fluoro-2-(1H-indol-5-yloxy)-N-({3-nitro-4-[(1-tetrahydro-2H-pyran-4-ylpiperidin-4-yl)amino]phenyl}sulfonyl)benzamide] | 361.5
CN(C)CCOc1ccc(-c2ccc(Cl)cc2)c(CN2CCN(c3ccc(C(=O)NS(=O)(=O)c4ccc(NN5CCN(C)CC5)c([N+](=O)[O-])c4)c(Oc4cccc5[nH]ccc45)c3)CC2)c1 [EXAMPLE 274, 4-[4-({4′-chloro-4-[2-(dimethylamino)ethoxy]-1,1′-biphenyl-2-yl}methyl)piperazin-1-yl]-2-(1H-indol-4-yloxy)-N-({4-[(4-methylpiperazin-1-yl)amino]-3-nitrophenyl}sulfonyl)benzamide] | 244.6
CC1(C)CCC(CN2CCN(c3ccc(C(=O)NS(=O)(=O)c4cnc(OC[C@@H]5CCN(C(CF)CF)C5)c(Cl)c4)c(Oc4cccc5[nH]ncc45)c3)CC2)=C(c2ccc(Cl)cc2)C1 [EXAMPLE 444, N-{[5-chloro-6-({(3R)-1-[2-fluoro-1-(fluoromethyl)ethyl]pyrrolidin-3-yl}methoxy)pyridin-3-yl]sulfonyl}-4-(4-{[2-(4-chlorophenyl)-4,4-dimethylcyclohex-1-en-1-yl]methyl}piperazin-1-yl)-2-(1H-indazol-4-yloxy)benzamide] | 727.625
CC1(C)CCC(CN2CCN(c3ccc(C(=O)NS(=O)(=O)c4cnc(O[C@@H]5CCN(CC(F)F)C5)c(Cl)c4)c(Oc4cccc5[nH]ncc45)c3)CC2)=C(c2ccc(Cl)cc2)C1 [EXAMPLE 422, N-[(5-chloro-6-{[(3R)-1-(2,2-difluoroethyl)pyrrolidin-3-yl]oxy}pyridin-3-yl)sulfonyl]-4-(4-{[2-(4-chlorophenyl)-4,4-dimethylcyclohex-1-en-1-yl]methyl}piperazin-1-yl)-2-(1H-indazol-4-yloxy)benzamide] | 4073
CC1(C)CCC(CN2CCN(c3ccc(C(=O)NS(=O)(=O)c4cnc(OCC5CCOCC5)c(C#N)c4)c(Oc4cccc5[nH]ccc45)c3)CC2)=C(c2ccc(Cl)cc2)C1 [EXAMPLE 386, 4-(4-{[2-(4-chlorophenyl)-4,4-dimethylcyclohex-1-en-1-yl]methyl}piperazin-1-yl)-N-{[5-cyano-6-(tetrahydro-2H-pyran-4-ylmethoxy)pyridin-3-yl]sulfonyl}-2-(1H-indol-4-yloxy)benzamide] | 494.5
CN1CC[C@H](Nc2ccc(S(=O)(=O)NC(=O)c3ccc(N4CCN(CC5=C(c6ccc(Cl)cc6)CC(C)(C)CC5)CC4)cc3Oc3ccc4[nH]ccc4c3)cc2[N+](=O)[O-])C1 [EXAMPLE 234, 4-(4-{[2-(4-chlorophenyl)-4,4-dimethylcyclohex-1-en-1-yl]methyl}piperazin-1-yl)-2-(1H-indol-5-yloxy)-N-[(4-{[(3S)-1-methylpyrrolidin-3-yl]amino}-3-nitrophenyl)sulfonyl]benzamide] | 66.3
CC1(C)CCC(CN2CCN(c3ccc(C(=O)NS(=O)(=O)c4cnc(OCC5CCOCC5)c(Br)c4)c(Oc4ccc5[nH]ccc5c4)c3)CC2)=C(c2ccc(Cl)cc2)C1 [EXAMPLE 329, N-{[5-bromo-6-(tetrahydro-2H-pyran-4-ylmethoxy)pyridin-3-yl]sulfonyl}-4-(4-{[2-(4-chlorophenyl)-4,4-dimethylcyclohex-1-en-1-yl]methyl}piperazin-1-yl)-2-(1H-indol-5-yloxy)benzamide] | >2319.5
CC1(C)CCC(CN2CCN(c3ccc(C(=O)NS(=O)(=O)c4cnc(OCC5(F)CCN(CC#N)CC5)c(Cl)c4)c(Oc4cccc5[nH]ncc45)c3)CC2)=C(c2ccc(Cl)cc2)C1 [EXAMPLE 419, N-[(5-chloro-6-{[1-(cyanomethyl)-4-fluoropiperidin-4-yl]methoxy}pyridin-3-yl)sulfonyl]-4-(4-{[2-(4-chlorophenyl)-4,4-dimethylcyclohex-1-en-1-yl]methyl}piperazin-1-yl)-2-(1H-indazol-4-yloxy)benzamide] | 1071
O=C(NS(=O)(=O)c1ccc(NCC2CCOCC2)c([N+](=O)[O-])c1)c1ccc(N2CCN(CC3=C(c4ccc(Cl)cc4)CCN(CCCO)C3)CC2)cc1Oc1cccc2[nH]ccc12 [EXAMPLE 355, 4-(4-{[4-(4-chlorophenyl)-1-(3-hydroxypropyl)-1,2,5,6-tetrahydropyridin-3-yl]methyl}piperazin-1-yl)-2-(1H-indol-4-yloxy)-N-({3-nitro-4-[(tetrahydro-2H-pyran-4-ylmethyl)amino]phenyl}sulfonyl)benzamide] | >5489.5
CN1CCC(COc2ccc(S(=O)(=O)NC(=O)c3ccc(N4CCN(CC5=C(c6ccc(Cl)cc6)CC(C)(C)CC5)CC4)cc3Oc3ccc4[nH]ccc4c3)cc2[N+](=O)[O-])CC1 [EXAMPLE 354, 4-(4-{[2-(4-chlorophenyl)-4,4-dimethylcyclohex-1-en-1-yl]methyl}piperazin-1-yl)-2-(1H-indol-5-yloxy)-N-({4-[(1-methylpiperidin-4-yl)methoxy]-3-nitrophenyl}sulfonyl)benzamide] | 148.8
CC1(C)CCC(CN2CCN(c3ccc(C(=O)NS(=O)(=O)c4ccc(NC5CCN(CCCC(F)(F)F)CC5)c([N+](=O)[O-])c4)c(Oc4cccc5[nH]ccc45)c3)CC2)=C(c2ccc(Cl)cc2)C1 [EXAMPLE 210, 4-(4-{[2-(4-chlorophenyl)-4,4-dimethylcyclohex-1-en-1-yl]methyl}piperazin-1-yl)-2-(1H-indol-4-yloxy)-N-[(3-nitro-4-{[1-(4,4,4-trifluorobutyl)piperidin-4-yl]amino}phenyl)sulfonyl]benzamide] | >1057.6
CC1(C)CCC(CN2CCN(c3ccc(C(=O)NS(=O)(=O)c4cnc(OCC5(F)CCOCC5)c(Cl)c4)c(Oc4cccc5[nH]cnc45)c3)CC2)=C(c2ccc(Cl)cc2)C1 [EXAMPLE 443, 2-(1H-benzimidazol-4-yloxy)-N-({5-chloro-6-[(4-fluorotetrahydro-2H-pyran-4-yl)methoxy]pyridin-3-yl}sulfonyl)-4-(4-{[2-(4-chlorophenyl)-4,4-dimethylcyclohex-1-en-1-yl]methyl}piperazin-1-yl)benzamide] | 1935.7
O=C(NS(=O)(=O)c1ccc(NCCCN2CCOCC2)c([N+](=O)[O-])c1)c1ccc(N2CCN(Cc3ccccc3-c3ccc(Cl)cc3)CC2)cc1Oc1ccc2ccccc2c1 [Example 36, 4-{4-[(4′-chloro-1,1′-biphenyl-2-yl)methyl]piperazin-1-yl}-N-({4-[(3-morpholin-4-ylpropyl)amino]-3-nitrophenyl}sulfonyl)-2-(2-naphthyloxy)benzamide] | 11.3
CC1(C)CCC(CN2CCN(c3ccc(C(=O)NS(=O)(=O)c4ccc(OCC5CCOCC5)c([N+](=O)[O-])c4)c(Oc4cccc5[nH]ccc45)c3)CC2)=C(c2ccc(Cl)cc2)C1 [EXAMPLE 289, 4-(4-{[2-(4-chlorophenyl)-4,4-dimethylcyclohex-1-en-1-yl]methyl}piperazin-1-yl)-2-(1H-indol-4-yloxy)-N-{[3-nitro-4-(tetrahydro-2H-pyran-4-ylmethoxy)phenyl]sulfonyl}benzamide] | >5917.7
CC(c1ccccc1-c1ccc(Cl)cc1)N1CCN(c2ccc(C(=O)NS(=O)(=O)c3ccc(NCCCN4CCOCC4)c([N+](=O)[O-])c3)c(Oc3cccc4[nH]ccc34)c2)CC1 (stereo not shown) [EXAMPLE 247, 4-{4-[1-(4′-chloro-1,1′-biphenyl-2-yl)ethyl]piperazin-1-yl}-2-(1H-indol-4-yloxy)-N-({4-[(3-morpholin-4-ylpropyl)amino]-3-nitrophenyl}sulfonyl)benzamide] | 145.3
CC1(C)CCC(CN2CCN(c3ccc(C(=O)NS(=O)(=O)c4cnc(OCC5CCC(F)(F)CC5)c(Cl)c4)c(Oc4cccc5[nH]cnc45)c3)CC2)=C(c2ccc(Cl)cc2)C1 [EXAMPLE 463, 2-(1H-benzimidazol-4-yloxy)-N-({5-chloro-6-[(4,4-difluorocyclohexyl)methoxy]pyridin-3-yl}sulfonyl)-4-(4-{[2-(4-chlorophenyl)-4,4-dimethylcyclohex-1-en-1-yl]methyl}piperazin-1-yl)benzamide] | 6043
CC1(C)CCC(CN2CCN(c3ccc(C(=O)NS(=O)(=O)c4ccc(NC5CCN(S(C)(=O)=O)CC5)c([N+](=O)[O-])c4)c(Oc4ccc5[nH]ccc5c4)c3)CC2)=C(c2ccc(Cl)cc2)C1 [EXAMPLE 335, 4-(4-{[2-(4-chlorophenyl)-4,4-dimethylcyclohex-1-en-1-yl]methyl}piperazin-1-yl)-2-(1H-indol-5-yloxy)-N-[(4-{[1-(methylsulfonyl)piperidin-4-yl]amino}-3-nitrophenyl)sulfonyl]benzamide] | >1508.2
CN(C)CCNc1ccc(S(=O)(=O)NC(=O)c2ccc(N3CCN(Cc4ccccc4-c4ccc(Cl)cc4)CC3)cc2Oc2ccccc2)cc1[N+](=O)[O-] [Example 153, 4-{4-[(4′-chloro-1,1′-biphenyl-2-yl)methyl]piperazin-1-yl}-N-[(4-{[2-(dimethylamino)ethyl]amino}-3-nitrophenyl)sulfonyl]-2-phenoxybenzamide] | 351
CC(c1ccccc1-c1ccc(Cl)cc1)N1CCN(c2ccc(C(=O)NS(=O)(=O)c3ccc(NCC4CCOCC4)c([N+](=O)[O-])c3)c(Oc3cccc4[nH]ccc34)c2)CC1 (stereo not shown) [Example 175, 4-{4-[1-(4′-chloro-1,1′-biphenyl-2-yl)ethyl]piperazin-1-yl}-2-(1H-indol-4-yloxy)-N-({3-nitro-4-[(tetrahydro-2H-pyran-4-ylmethyl)amino]phenyl}sulfonyl)benzamide] | >6600

Source: patent US9125913B2, “Bcl-2-selective apoptosis-inducing agents for the treatment of cancer and immune diseases” (AbbVie Inc., priority 2008, dated 2015)
